Measurements as given in patent US20040014779A1, “Methods and compositions related to IRM compounds and toll-like recptor pathways” (3M Innovative Properties Company, priority 2001, published 2004).

How the values were obtained:
[1] = target: T1, TLR6 (Homo sapiens, UniProt Q9Y2C9, P680H); assay: TNF-α production by THP-1 cells transfected with TLR6DN vs vector control; format: cell-based
T1 construct: expressed in transfected cells; host or cells: THP-1 (pIRES vector)
Description: The human TLR6 dominant negative construct was generated from human PBMC cDNA using the same strategy as the murine TLR6 dominant negative. The proline to histidine mutation for human TLR6 was introduced at amino acid 680 along with an Apa LI restriction enzyme site (5′ sense: SEQ ID NO 5; 5′ antisense: SEQ ID NO 6; 3′ sense: SEQ ID NO 7; 3′ antisense: SEQ ID NO 8).
(§1) The amplified 5′ and 3′ sections of each human dominant negative TLR was inserted into pCR-Blunt II-TOPO for sequence verification. The 5′ and 3′ sections were joined together when subcloned into pIRES (Clontech, Palo Alto, Calif.) for expression in mammalian cells.
(§2) THP-1 cells (maintained at cell number less than 1×10^6 cells/ml) were co-transfected with the plamid vector containing either the TLR6DN or TLR7DN construct and with a murine H2K^k plasmid (Miltenyi Biotec Inc., Auburn, Calif.) in a 4:1 ratio of TLR plasmid to H2K^k plasmid. Transfection of THP-1 cells was carried out using the transfection reagent FuGENE 6 (Roche Diagnostics Corp., Indianapolis, Ind.) according to the manufacturer's specifications. […]
(§3) TNF-α levels were measured with a commercial Human TNF-α ELISA kit (Biosource International, Inc., Camarillo, Calif.) according to the manufacturer's specifications. […]

[2] = target: T2, TLR6 (Mus musculus, UniProt Q9EPW9); assay: IRM-stimulated TNF-α production by RAW 264.7 cells overexpressing TLR6; format: cell-based, murine
T2 construct: expressed in transfected cells; host or cells: RAW 264.7 (pIRES vector)
T2 sequence (Q9EPW9 28-795): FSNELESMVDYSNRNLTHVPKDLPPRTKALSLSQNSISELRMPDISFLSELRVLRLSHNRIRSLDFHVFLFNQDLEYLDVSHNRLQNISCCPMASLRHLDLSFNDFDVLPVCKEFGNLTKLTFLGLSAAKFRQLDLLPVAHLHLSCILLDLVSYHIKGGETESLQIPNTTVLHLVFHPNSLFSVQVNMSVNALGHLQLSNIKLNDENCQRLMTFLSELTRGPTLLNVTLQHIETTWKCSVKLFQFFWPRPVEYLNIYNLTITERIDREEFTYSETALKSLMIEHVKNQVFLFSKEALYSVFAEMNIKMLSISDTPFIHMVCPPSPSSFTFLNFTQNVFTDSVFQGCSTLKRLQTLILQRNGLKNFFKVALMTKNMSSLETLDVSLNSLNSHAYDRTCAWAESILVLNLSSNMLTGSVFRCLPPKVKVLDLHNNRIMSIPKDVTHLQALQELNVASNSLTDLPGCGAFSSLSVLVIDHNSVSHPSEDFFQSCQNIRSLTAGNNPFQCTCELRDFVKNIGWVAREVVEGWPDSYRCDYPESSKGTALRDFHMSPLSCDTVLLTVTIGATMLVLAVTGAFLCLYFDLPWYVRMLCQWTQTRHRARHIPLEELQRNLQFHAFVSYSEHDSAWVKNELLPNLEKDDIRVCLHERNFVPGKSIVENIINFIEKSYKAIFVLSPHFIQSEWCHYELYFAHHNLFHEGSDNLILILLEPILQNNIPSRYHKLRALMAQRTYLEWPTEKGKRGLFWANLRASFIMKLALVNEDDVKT
T2 sequence (Q9QUN7 25-784 partner): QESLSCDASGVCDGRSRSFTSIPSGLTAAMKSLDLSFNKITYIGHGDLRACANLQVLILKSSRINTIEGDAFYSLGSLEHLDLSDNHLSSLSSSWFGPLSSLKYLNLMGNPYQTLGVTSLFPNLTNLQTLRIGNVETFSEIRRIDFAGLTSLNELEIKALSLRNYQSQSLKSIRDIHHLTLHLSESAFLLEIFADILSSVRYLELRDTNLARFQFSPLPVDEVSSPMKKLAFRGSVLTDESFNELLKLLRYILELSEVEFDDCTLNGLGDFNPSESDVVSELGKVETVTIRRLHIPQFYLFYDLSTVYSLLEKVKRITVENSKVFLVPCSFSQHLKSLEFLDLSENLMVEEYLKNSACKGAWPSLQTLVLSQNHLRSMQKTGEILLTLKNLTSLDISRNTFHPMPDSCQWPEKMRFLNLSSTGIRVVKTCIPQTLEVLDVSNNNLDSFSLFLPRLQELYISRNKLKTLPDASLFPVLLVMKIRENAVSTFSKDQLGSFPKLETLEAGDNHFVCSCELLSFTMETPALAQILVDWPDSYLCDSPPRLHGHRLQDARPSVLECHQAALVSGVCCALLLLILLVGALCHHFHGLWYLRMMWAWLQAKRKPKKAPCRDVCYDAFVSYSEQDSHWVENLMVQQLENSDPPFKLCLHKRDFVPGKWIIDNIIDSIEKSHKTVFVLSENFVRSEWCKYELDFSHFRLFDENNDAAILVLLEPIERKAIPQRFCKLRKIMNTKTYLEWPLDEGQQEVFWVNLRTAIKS
Description: The murine TLR wild-type vectors were generated by PCR amplification from RAW 264.7 cell cDNA with TLR6 specific primers (sense primer: SEQ ID NO 13; antisense primer: SEQ ID NO 14) or TLR7 specific primers (sense primer: SEQ ID NO 15; antisense primer: SEQ ID NO 16) by Pfu Turbo DNA polymerase kit (Stratagene, La Jolla, Calif.). The PCR products were inserted into pCR-Blunt II-TOPO for sequence verification and then subcloned into pIRES (BD Biosciences Clontech, Palo Alto, Calif.) for expression in mammalian cells.
THP-1 cells or RAW 264.7 cells were cultured and transfected with the wild type TLR 6 or wild type TLR 7 plasmids described above. The transfections were performed as in Example 1 with a 4:1 ratio of wild-type TLR to H2K plasmid (THP-1 cells) or CD4 (RAW 264.7 cells).
RAW 264.7 cells were stimulated with various concentrations of resiquimod and analyzed as described in Example 1. Results are provided in Table 4 and are expressed as fold increase in TNF-α production as compared to control transfected RAW 264.7 cells.

[3] = system: TLR7; assay: TNF-α production by THP-1 cells transfected with TLR7DN vs vector control; format: cell-based, human
Description: The human TLR7 dominant negative construct was generated in a manner similar to that used to generate the human TLR6 dominant negative construct. The proline to histidine mutation for human was introduced at amino acid 932 along with a Bam HI restriction enzyme site (5′ sense: SEQ ID NO 9; 5′ antisense: SEQ ID NO 10; 3′ sense: SEQ ID NO 11; 3′ antisense: SEQ ID NO 12).
as §1, §2, §3

[4] = stimulus 3 μM, 18 hours, relative to vector control

T1 sequence (Q9Y2C9 32-796 P680H): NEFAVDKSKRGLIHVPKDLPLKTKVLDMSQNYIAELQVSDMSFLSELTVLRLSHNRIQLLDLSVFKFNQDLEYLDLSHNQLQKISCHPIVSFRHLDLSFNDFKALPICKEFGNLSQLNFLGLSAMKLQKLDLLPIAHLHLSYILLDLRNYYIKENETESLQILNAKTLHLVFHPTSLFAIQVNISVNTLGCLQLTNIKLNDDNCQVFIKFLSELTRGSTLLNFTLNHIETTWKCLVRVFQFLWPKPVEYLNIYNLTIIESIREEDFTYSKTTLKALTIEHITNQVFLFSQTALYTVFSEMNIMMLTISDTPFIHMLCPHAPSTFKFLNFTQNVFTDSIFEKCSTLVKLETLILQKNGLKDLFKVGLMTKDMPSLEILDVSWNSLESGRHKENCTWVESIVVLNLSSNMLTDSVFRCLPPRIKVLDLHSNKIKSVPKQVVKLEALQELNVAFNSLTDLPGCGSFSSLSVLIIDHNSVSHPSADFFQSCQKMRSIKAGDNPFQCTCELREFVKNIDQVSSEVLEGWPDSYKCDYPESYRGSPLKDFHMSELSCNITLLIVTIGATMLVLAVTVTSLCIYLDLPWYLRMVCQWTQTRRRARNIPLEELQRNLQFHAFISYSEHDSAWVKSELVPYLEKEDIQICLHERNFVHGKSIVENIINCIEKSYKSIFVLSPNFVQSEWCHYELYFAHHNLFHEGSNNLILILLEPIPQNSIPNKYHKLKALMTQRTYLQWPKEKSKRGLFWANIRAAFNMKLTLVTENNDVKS
T1 sequence (O60603 19-784 partner limits assumed): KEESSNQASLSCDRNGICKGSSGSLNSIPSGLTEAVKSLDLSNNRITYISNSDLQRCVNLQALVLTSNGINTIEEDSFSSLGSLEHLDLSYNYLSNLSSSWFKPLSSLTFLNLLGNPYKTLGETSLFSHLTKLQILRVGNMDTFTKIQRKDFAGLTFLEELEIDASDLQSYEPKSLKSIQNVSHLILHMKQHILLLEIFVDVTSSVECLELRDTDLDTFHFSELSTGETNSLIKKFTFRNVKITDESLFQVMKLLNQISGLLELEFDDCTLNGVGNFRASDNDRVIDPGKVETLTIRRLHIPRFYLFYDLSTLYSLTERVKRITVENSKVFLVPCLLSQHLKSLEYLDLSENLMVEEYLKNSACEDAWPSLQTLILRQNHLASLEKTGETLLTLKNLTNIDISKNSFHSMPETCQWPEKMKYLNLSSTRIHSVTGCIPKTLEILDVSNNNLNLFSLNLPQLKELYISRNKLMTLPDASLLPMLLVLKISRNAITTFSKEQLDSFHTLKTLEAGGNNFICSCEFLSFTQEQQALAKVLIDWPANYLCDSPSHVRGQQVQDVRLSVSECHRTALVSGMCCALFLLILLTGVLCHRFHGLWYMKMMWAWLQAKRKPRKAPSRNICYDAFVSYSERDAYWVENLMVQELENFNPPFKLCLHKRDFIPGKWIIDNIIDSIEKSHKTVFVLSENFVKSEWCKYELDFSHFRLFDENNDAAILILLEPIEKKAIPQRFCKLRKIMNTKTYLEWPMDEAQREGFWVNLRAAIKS

- Effect of TLR6DN on stimulus-induced TNF-α production (in words) ([1]; compared to control vector): inhibited
- TLR6DN % inhibition of TNF-α production [1, 4]: 70.1%
- Fold increase in TNF-α production over control, TLR6 ([2]; RAW 264.7 overexpressing TLR6, 0.0004 μM): 9.6 fold
- Fold increase in TNF-α production over control, TLR6 ([2]; RAW 264.7 overexpressing TLR6, 0.001 μM): 8.0 fold
- Fold increase in TNF-α production over control, TLR6 ([2]; RAW 264.7 overexpressing TLR6, 0.004 μM): 9.2 fold
- Fold increase in TNF-α production over control, TLR6 ([2]; RAW 264.7 overexpressing TLR6, 0.012 μM): 3.5 fold
- Fold increase in TNF-α production over control, TLR6 ([2]; RAW 264.7 overexpressing TLR6, 0.037 μM): 3.9 fold
- Fold increase in TNF-α production over control, TLR6 ([2]; RAW 264.7 overexpressing TLR6, 1 μM): 1.4 fold
- Fold increase in TNF-α production over control, TLR6 ([2]; RAW 264.7 overexpressing TLR6, 3 μM): 1.7 fold
- Fold increase in TNF-α production over control, TLR6 ([2]; RAW 264.7 overexpressing TLR6, 10 μM): 1.8 fold
- TLR6 agonist character (in words) ([2]; from TLR6 overexpression in RAW 264.7 cells): agonist
SMILES: CCOCc1nc2c(N)nc3ccccc3c2n1CC(C)(C)O [Resiquimod, 4-amino-2-ethoxymethyl-α,α-dimethyl-1H-imidazo[4,5-c]quinoline-1-ethanol]
- Effect of TLR7DN on stimulus-induced TNF-α production (in words) ([3]; compared to control vector): inhibited
- TLR7DN % inhibition of TNF-α production [3, 4]: 55.3%
